Experimental data as given in PMC11364104, “Discovery of SARS-CoV-2 papain-like protease (PL^pro) inhibitors with efficacy in a murine infection model” (Science Advances, 2024).
pIC50: −log10 of the molar value. Like-named read-outs stand apart in the source and are kept apart here.

Legend:
PPAR gamma (Binding) = target: T1, PPAR gamma (Binding) (Homo sapiens, UniProt P37231); assay: CEREP NHR-binding
T1 construct: purchased Eurofins Cerep

PDE3B = target: T2, PDE3B (Homo sapiens, UniProt Q13370); assay: CEREP enzyme inhibition; format: biochemical
T2 construct: purchased Eurofins Cerep
T2 sequence (Q13370 whole entry): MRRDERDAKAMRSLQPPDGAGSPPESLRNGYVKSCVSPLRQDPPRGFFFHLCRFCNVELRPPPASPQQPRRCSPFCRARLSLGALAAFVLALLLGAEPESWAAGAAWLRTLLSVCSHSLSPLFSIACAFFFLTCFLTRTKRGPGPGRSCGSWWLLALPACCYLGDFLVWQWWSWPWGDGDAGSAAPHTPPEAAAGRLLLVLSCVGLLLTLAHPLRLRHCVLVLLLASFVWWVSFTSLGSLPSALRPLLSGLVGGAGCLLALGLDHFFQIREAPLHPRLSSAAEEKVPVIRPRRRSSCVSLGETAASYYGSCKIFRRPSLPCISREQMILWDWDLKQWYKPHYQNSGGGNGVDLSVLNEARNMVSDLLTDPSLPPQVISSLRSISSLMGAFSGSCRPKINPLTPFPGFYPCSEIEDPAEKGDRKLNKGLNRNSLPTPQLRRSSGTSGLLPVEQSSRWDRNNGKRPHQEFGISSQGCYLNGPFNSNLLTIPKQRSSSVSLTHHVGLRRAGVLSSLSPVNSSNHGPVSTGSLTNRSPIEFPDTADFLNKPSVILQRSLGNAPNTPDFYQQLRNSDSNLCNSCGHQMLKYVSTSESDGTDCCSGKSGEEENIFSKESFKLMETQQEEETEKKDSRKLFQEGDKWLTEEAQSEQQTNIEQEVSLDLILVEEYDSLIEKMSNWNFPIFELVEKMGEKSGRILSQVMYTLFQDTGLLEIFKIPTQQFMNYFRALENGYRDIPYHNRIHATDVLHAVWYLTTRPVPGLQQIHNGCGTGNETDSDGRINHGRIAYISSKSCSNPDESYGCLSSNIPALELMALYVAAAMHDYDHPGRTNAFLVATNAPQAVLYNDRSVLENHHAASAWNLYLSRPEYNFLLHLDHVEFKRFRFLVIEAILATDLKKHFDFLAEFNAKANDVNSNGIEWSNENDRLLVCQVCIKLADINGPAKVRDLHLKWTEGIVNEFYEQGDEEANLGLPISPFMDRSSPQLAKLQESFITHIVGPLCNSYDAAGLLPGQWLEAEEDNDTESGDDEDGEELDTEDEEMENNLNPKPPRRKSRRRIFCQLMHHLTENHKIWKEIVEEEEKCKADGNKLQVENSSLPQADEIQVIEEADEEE

[1] = test system: Nicotinic Ach Receptor (Neuronal); assay: CEREP ion channel-binding; details: 30 µM
in vivo = assay: in vivo; set-up: species or system mouse; details: for Vd: C57BL6, mouse, iv, 1 mg/kg, read-out: Vdss
Src Kinase = target: T3, Src Kinase (Homo sapiens, UniProt P12931); assay: CEREP kinase inhibition; format: biochemical
T3 construct: purchased Eurofins Cerep
T3 sequence (P12931 whole entry): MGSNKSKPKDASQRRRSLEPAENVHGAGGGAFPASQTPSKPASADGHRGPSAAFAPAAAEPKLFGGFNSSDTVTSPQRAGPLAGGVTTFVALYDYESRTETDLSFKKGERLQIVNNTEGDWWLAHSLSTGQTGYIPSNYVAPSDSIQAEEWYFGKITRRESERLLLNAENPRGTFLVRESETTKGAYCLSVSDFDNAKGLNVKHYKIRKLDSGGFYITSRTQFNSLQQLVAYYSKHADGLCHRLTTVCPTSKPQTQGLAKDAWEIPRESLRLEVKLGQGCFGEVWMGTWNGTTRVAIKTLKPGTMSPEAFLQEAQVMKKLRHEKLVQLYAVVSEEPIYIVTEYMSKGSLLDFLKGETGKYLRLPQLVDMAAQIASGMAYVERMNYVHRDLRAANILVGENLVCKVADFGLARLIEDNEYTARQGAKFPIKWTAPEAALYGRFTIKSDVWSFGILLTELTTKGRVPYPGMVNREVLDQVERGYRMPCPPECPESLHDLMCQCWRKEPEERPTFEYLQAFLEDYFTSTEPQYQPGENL

in vitro [2] = details: mouse, plasma
L-Type Ca (Diltiazem) = assay: CEREP ion channel-binding; details: 30 µM
CYP2D6 = CYP2D6 (Homo sapiens, UniProt P10635); assay: biochemical
CYP2D6, sequence (P10635 whole entry): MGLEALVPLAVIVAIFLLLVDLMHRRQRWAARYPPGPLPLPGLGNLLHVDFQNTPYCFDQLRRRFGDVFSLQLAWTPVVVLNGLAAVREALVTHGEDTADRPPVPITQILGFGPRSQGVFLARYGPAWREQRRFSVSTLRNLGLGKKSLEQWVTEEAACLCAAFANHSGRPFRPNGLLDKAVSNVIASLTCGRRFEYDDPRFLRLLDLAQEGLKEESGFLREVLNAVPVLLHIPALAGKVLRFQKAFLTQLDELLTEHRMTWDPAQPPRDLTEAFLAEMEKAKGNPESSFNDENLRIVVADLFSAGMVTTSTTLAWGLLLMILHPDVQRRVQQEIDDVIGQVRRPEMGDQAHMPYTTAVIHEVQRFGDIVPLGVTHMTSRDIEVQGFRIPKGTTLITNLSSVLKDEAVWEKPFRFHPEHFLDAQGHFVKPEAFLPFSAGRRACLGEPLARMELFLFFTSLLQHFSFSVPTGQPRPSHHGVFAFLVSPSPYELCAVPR

in vitro [3] = details: African green monkey, Mean CC50, n=3
Choline Transporter = target: T4, Choline Transporter (Homo sapiens, UniProt Q9GZV3); assay: CEREP transporters-binding
T4 construct: purchased Eurofins Cerep
T4 sequence (Q9GZV3 whole entry): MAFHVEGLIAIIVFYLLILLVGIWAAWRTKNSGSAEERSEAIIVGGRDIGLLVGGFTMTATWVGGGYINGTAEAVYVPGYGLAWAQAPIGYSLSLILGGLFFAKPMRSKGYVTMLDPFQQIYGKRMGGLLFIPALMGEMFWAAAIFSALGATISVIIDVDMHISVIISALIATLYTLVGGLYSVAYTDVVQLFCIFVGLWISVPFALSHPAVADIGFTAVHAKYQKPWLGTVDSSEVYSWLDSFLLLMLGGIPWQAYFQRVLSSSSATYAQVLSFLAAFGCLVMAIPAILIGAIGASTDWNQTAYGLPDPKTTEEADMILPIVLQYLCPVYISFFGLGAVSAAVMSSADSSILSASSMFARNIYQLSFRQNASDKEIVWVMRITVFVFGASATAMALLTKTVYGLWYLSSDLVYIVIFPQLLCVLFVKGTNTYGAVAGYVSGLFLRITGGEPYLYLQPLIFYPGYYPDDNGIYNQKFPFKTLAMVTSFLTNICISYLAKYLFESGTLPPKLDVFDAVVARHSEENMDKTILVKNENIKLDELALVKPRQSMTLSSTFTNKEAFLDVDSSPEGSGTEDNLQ

Monoamine Oxidase = assay: CEREP enzyme inhibition; format: biochemical; details: 30 µM
in vitro [4] = details: dog, plasma
Sodium (Site 2) = assay: CEREP ion channel-binding; details: 30 µM
[5] = target: T5, human Nav1.5 sodium channel (Homo sapiens, UniProt Q14524); assay: hNav1.5 automated patch clamp; format: cell-based; details: read-out: NaV IC50
T5 construct: assay run at Metrion Biosciences Ltd; host or cells: CHO
Protocol: Hz, and hCav1.2 current was measured as the peak current at 0 mV. All studies were […]
Three vehicle periods each lasting 5 minutes were applied to establish a stable baseline.
This was followed by the addition of increasing concentrations of test compound, with each exposure lasting 5 minutes. Patch clamp data were analyzed using Analyzer Software 6.4.72. Current amplitudes were determined by averaging the last 4 currents under each test condition. The percentage inhibition of each compound was determined by taking the ratio of current amplitude measured in the presence of various concentrations of the test compound (ICompound) versus the vehicle control current (IVehicle): % Inhibition = [1-(I Compound/IVehicle)] * 100%. A dose-response curve was generated and fit to the Hill equation by the Sophion Analyzer software to determine an IC50 value for each compound. The minimum and the […]
CHO cells stably expressing the human Nav1.5 sodium channel (University of Pennsylvania, Philadelphia, PA, hNav1.5 clone #6) were cultured in Hams F12 + Glutamax media supplemented with 10% FBS and Geneticin (0.5 mg/mL) at 37°C and 5% CO2 and subcultured every 2-3 days in T175 flasks. […]
Ionic currents were evaluated in the whole-cell configuration using the Qube384 platform using QChip 384x plates. […]

[6] = in vivo, Male C57BL6 mouse, 1.0 mg/kg iv, solution, mean n=2
[7] = in vivo, Male C57BL6 mouse, 10 mg/kg po, solution, mean n=2
[8] = mouse Balb c female, PO 15 mg/kg, suspension
[9] = mouse Balb c female, PO 50 mg/kg, suspension
[10] = mouse Balb c female, PO 150 mg/kg, suspension
[11] = mouse C57BL6 male, IV 1 mg/kg, solution
[12] = mouse C57BL6 male, PO 10 mg/kg, solution
[13] = mouse C57BL6 male, PO 30 mg/kg, solution

T1 sequence (P37231 whole entry): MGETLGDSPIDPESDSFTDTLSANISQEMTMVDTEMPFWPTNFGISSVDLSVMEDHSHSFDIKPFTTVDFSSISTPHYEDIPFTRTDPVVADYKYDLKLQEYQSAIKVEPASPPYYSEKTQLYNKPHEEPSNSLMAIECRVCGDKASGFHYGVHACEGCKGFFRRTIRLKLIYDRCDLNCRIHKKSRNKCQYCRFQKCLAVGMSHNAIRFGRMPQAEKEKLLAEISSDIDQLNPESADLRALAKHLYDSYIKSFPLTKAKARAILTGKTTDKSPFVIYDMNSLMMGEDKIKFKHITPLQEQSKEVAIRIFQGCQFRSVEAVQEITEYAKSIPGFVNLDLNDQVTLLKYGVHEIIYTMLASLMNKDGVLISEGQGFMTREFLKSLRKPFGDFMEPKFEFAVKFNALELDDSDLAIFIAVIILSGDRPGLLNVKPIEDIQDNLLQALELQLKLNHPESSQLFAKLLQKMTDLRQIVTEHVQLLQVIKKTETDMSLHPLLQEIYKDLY

**Q.** Which inhibition at 30 µM (PPAR gamma (Binding)) does the source give for `Cc1ccc(N2CCN(C)CC2)cc1C(=O)NC1(c2cc(-c3cnn(C)c3)nc3ccccc23)CC1` [Compound 4] here?
**A.** Its inhibition at 30 µM is 9%.

**Q.** What about the inhibition at 30 µM (PDE3B) of the same compound?
**A.** Its inhibition at 30 µM is 4%.

**Q.** And the “% inhibition” value [1]?
**A.** The value was -6%.

**Q.** And the “Oral F” value (in vivo; Male C57BL6 mouse, 10 mg/kg po, solution, mean n=2)?
**A.** Its value is 53.10%.

**Q.** What about the AUC(0-inf) (in vivo; [6]) of the same compound?
**A.** Its AUC(0-inf) is 708 ng·h/mL.

**Q.** And the half-life (in vivo; [6])?
**A.** The half-life was 3.29 h.

**Q.** And the clearance (in vivo; in vivo, Male C57BL6 mouse, 1.0 mg/kg iv, solution, mean n=2, read-out: CLp)?
**A.** Its clearance is 23.7 mL/min/kg.

**Q.** What about the AUC(0-inf) (in vivo; [7]) of the same compound?
**A.** Its AUC(0-inf) is 3760 ng·h/mL.

**Q.** What about the Cmax (in vivo; [7]) of the same compound?
**A.** Its Cmax is 862 ng/mL.

**Q.** What about the half-life (in vivo; [7]) of the same compound?
**A.** Its half-life is 2.19 h.

**Q.** And the Tmax (in vivo; in vivo, Male C57BL6 mouse, 10 mg/kg po, solution, mean n=2, read-out: Tmax)?
**A.** The Tmax was 2 h.

**Q.** What about the Cmax (in vivo; in vivo, mouse Balb c female, PO 15 mg/kg, suspension) of the same compound?
**A.** The Cmax was 1140 ng/mL.

**Q.** And the Cmax (in vivo; in vivo, mouse Balb c female, PO 50 mg/kg, suspension)?
**A.** Its Cmax is 5410 ng/mL.

**Q.** What about the Cmax (in vivo; in vivo, mouse Balb c female, PO 150 mg/kg, suspension) of the same compound?
**A.** The Cmax was 12800 ng/mL.

**Q.** What about the Cmax (in vivo; in vivo, mouse C57BL6 male, PO 30 mg/kg, solution) of the same compound?
**A.** Its Cmax is 1880 ng/mL.

**Q.** What about the bioavailability (in vivo; male, C57BL6, in vivo, po, 10 mg/kg, mouse (m), read-out: Oral F (%)) of the same compound?
**A.** The bioavailability was 53.2%.

**Q.** And the Vd (in vivo; male, in vivo, Male C57BL6 mouse, 1.0 mg/kg iv, solution, mean n=2)?
**A.** Its Vd is 2.13 L/kg.

**Q.** And the Vd (in vivo; male, in vivo, mouse (m), intravenous)?
**A.** The Vd was 2.12 L/kg.

**Q.** And the Vd (in vivo; male, in vivo, mouse C57BL6 male, IV 1 mg/kg, solution)?
**A.** The Vd was 2.13 L/kg.

**Q.** And the “% F Method 3 (Dose * AUC Extrap)” value (in vivo; [8])?
**A.** Its value is 74.8%.

**Q.** What about the “AUC(0,inf)” value (in vivo; [8]) of the same compound?
**A.** Its value is 7940 ng·h/mL.

**Q.** And the “AUC(0-Tlast)” value (in vivo; [8])?
**A.** Its value is 7940 ng·h/mL.

**Q.** And the T1/2 (in vivo; [8])?
**A.** Its T1/2 is 1.95 h.

**Q.** What about the Tmax (in vivo; [8]) of the same compound?
**A.** The Tmax was 1.25 h.

**Q.** What about the “% F Method 3 (Dose * AUC Extrap)” value (in vivo; [9]) of the same compound?
**A.** Its value is 84.0%.

**Q.** And the “AUC(0,inf)” value (in vivo; [9])?
**A.** The value was 29800 ng·h/mL.

**Q.** And the “AUC(0-Tlast)” value (in vivo; [9])?
**A.** The value was 29700 ng·h/mL.

**Q.** What about the T1/2 (in vivo; [9]) of the same compound?
**A.** Its T1/2 is 2.01 h.

**Q.** What about the Tmax (in vivo; [9]) of the same compound?
**A.** The Tmax was 0.375 h.

**Q.** And the “% F Method 3 (Dose * AUC Extrap)” value (in vivo; [10])?
**A.** The value was 84.0%.

**Q.** And the “AUC(0,inf)” value (in vivo; [10])?
**A.** The value was 89200 ng·h/mL.

**Q.** What about the “AUC(0-Tlast)” value (in vivo; [10]) of the same compound?
**A.** The value was 89100 ng·h/mL.

**Q.** What about the T1/2 (in vivo; [10]) of the same compound?
**A.** Its T1/2 is 2.47 h.

**Q.** What about the Tmax (in vivo; [10]) of the same compound?
**A.** The Tmax was 0.25 h.

**Q.** What about the “% of dose in feces” value (in vivo; [11]) of the same compound?
**A.** The value was 26.0%.

**Q.** And the “AUC(0,inf)” value (in vivo; [11])?
**A.** The value was 708 ng·h/mL.

**Q.** What about the “AUC(0-Tlast)” value (in vivo; [11]) of the same compound?
**A.** The value was 706 ng·h/mL.

**Q.** What about the T1/2 (in vivo; [11]) of the same compound?
**A.** The T1/2 was 3.29 h.

**Q.** What about the “% F Method 3 (Dose * AUC Extrap)” value (in vivo; [12]) of the same compound?
**A.** The value was 53.1%.

**Q.** And the “% of dose in feces” value (in vivo; [12])?
**A.** The value was 12.6%.

**Q.** What about the “AUC(0,inf)” value (in vivo; [12]) of the same compound?
**A.** Its value is 3760 ng·h/mL.

**Q.** And the “AUC(0-Tlast)” value (in vivo; [12])?
**A.** Its value is 3760 ng·h/mL.

**Q.** And the T1/2 (in vivo; [12])?
**A.** The T1/2 was 2.19 h.

**Q.** And the Tmax (in vivo; [12])?
**A.** Its Tmax is 2 h.

**Q.** What about the “% F Method 3 (Dose * AUC Extrap)” value (in vivo; [13]) of the same compound?
**A.** The value was 67.4%.

**Q.** What about the “% of dose in feces” value (in vivo; [13]) of the same compound?
**A.** The value was 10.8%.

**Q.** What about the “AUC(0,inf)” value (in vivo; [13]) of the same compound?
**A.** Its value is 14300 ng·h/mL.

**Q.** And the “AUC(0-Tlast)” value (in vivo; [13])?
**A.** Its value is 14300 ng·h/mL.

**Q.** And the T1/2 (in vivo; [13])?
**A.** The T1/2 was 2.17 h.

**Q.** And the Tmax (in vivo; [13])?
**A.** Its Tmax is 2 h.

**Q.** And the tolerability (in vivo; mouse, oral, highest dose studied (500 mg/kg))?
**A.** Its tolerability is “tolerated”.

**Q.** What about the inhibition at 30 µM (Src Kinase) of the same compound?
**A.** The inhibition at 30 µM was -5%.

**Q.** And the fraction unbound (in vitro [2])?
**A.** Its fraction unbound is 0.093.

**Q.** What about the “% inhibition” value (L-Type Ca (Diltiazem)) of the same compound?
**A.** The value was 10%.

**Q.** What about the pIC50 (CYP2D6) of the same compound?
**A.** Its pIC50 is less than 4.52.

**Q.** What about the CC50 (in vitro [3]) of the same compound?
**A.** Its CC50 is 69.3 µM.

**Q.** What about the inhibition at 30 µM (Choline Transporter) of the same compound?
**A.** The inhibition at 30 µM was 25%.

**Q.** What about the “% inhibition” value (Monoamine Oxidase) of the same compound?
**A.** Its value is 16%.

**Q.** What about the fraction unbound (in vitro [4]) of the same compound?
**A.** Its fraction unbound is 0.176.

**Q.** And the “% inhibition” value (Sodium (Site 2))?
**A.** The value was -15%.

**Q.** What about the pIC50 [5] of the same compound?
**A.** The pIC50 was less than 4.00.
